Experiment [1] concerns S. aureus UAMS-1 (methicillin-sensitive, MSSA). The experiment can be described thus: β-lactam disk diffusion susceptibility test. Format: cell-based, Staphylococcus aureus. As to conditions: disks 0.2 μg oxacillin, 2 μg ampicillin, 2 μg penicillin, 24 h. How it is done:
(§1) Example 9. β-lactam disk diffusion susceptibility test. […] Methicillin-susceptible and methicillin-resistant S. aureus, UAMS-1 and LAC-13C, respectively, were streaked for isolation on tryptic soy agar (TSA) plates and incubated for 24 hours at 37° C. Overnight cultures were prepared by picking a single colony of each strain from its plate and adding to separate 3 mL sterile tryptic soy broth (TSB) in a 5 mL culture tube and incubating 14-16 h at 37° C. and 250 rpm. Next, the optical density at 600 nm (OD600) was measured to prepare fresh 50 mL cultures with OD600=0.1 to be grown for 2-3 hours at 37° C. and 250 rpm. Cultures were pelleted by centrifugation at 4500 rpm, then resuspended and concentrated in 500 μL sterile 1× Hank's Balanced Salt Solution (HBSS). […] To achieve lawn-style growth, cells were spread across the plates with sterile glass beads.
Background: In agar diffusion tests the substance spreads into inoculated agar from a disc or well.

In experiment [2] the test system is S. aureus LAC-13C (methicillin-resistant, MRSA). Briefly: β-lactam disk diffusion susceptibility test. Conditions: disks 1 μg oxacillin, 10 μg ampicillin, 10 μg penicillin, 24 h. The experiment is classed as cell-based, Staphylococcus aureus. How it is done:
as §1

For experiment [3], the system named is S. agalactiae (NCTC 8181). Briefly: β-lactam disk diffusion susceptibility test with and without lignin. Format: cell-based, Streptococcus agalactiae. Conditions: disks 10 μg penicillin, 10 μg ampicillin, 30 μg amoxicillin+clavulanic acid, 24 h. How it is done: (§2) Example 13. Sensitivity of S. agalactiae and S. uberis to β-lactams and lignin. Type strains of S. agalactiae and S. uberis Diemhofer (NCTC 8181 and NCTC 3858, respectively) were obtained from the American Type Culture Collection (ATCC) as lyophilized pellets. Cells were revived by resuspension in 5 mL Todd Hewitt broth (THB, 3% w/v) and static incubation for 24 h at 37° C. Culture OD600 was measured and the volume to achieve OD600=0.025 was added to 50 mL fresh THB in 250 mL Erlenmeyer flasks and grown for 2 hours; S. agalactiae cultures were supplemented with 1 μM hemin and 10 μM menaquinone and grown at 37° C. and 200 rpm, while S. uberis was grown statically at 37° C. Cultures were centrifuged at 4500 rpm for 10 minutes. Due to differences in pellet sizes, S. agalactiae pellets were resuspended in 1 mL Hank's Balanced Salt Solution (HBSS), and S. uberis pellets were resuspended in 400 μL HBSS in order to normalize the OD600 of the two cell suspensions. […] Paper disks containing 10 μg penicillin, 10 μg ampicillin, and 30 μg amoxicillin+clavulanic acid (Oxoid, Basingstoke, UK) were placed on the agar, then incubated for 24 h at 37° C. Plates were inspected for zones of clearance around the disks indicating susceptibility.

Experiment [4] relates to S. uberis Diemhofer (NCTC 3858). Described as above. Conditions: disks 10 μg penicillin, 10 μg ampicillin, 30 μg amoxicillin+clavulanic acid, 24 h. The experiment is classed as cell-based, Streptococcus uberis. On the procedure: as §2
Another experiment deals with S. aureus UAMS-1. Briefly: Tunicamycin disk diffusion assay. The experiment is classed as cell-based, Staphylococcus aureus. As to conditions: 2 μg disk, 24 h. On the procedure:
Tunicamycin disk diffusion assay: S. aureus UAMS-1 cultures were prepared by inoculating separate 15-mL culture tubes containing 3 mL sterile 3% (w/v) TSB with a single colony and incubated 14-16 h at 37° C. while shaking at 250 rpm. Fresh 50-mL cultures with an initial OD600=0.025 were prepared and incubated for 2 h at 37° C. and 250 rpm. Cells were collected by centrifugation at 4,500 rpm and resuspended in 500 μL sterile Hank's Balanced Salt Solution (HBSS; Corning, Corning, NY). […] Cells were spread across the plates with sterile glass beads and the plates were left open to dry in a clean laminar-flow hood for 10-15 min. […] Three biological replicates were analyzed.

Where [5] appears, read: TSA with 50 mM MOPS and 5 mg/mL lignin.
The mark [6] stands for this setting: TSA without lignin (50 mM MOPS).
The mark [7] stands for this setting: in the presence of 5 mg/mL lignin.

Entries after “also recorded” stand apart in the source; their conditions may differ.

For the molecule `CC1(C)S[C@@H]2[C@H](NC(=O)[C@H](N)c3ccccc3)C(=O)N2[C@H]1C(=O)O` [ampicillin], the “susceptibility (zone of clearance around disk)” value is recorded as “at least partially sensitive/susceptible; also recorded: increased sensitivity/susceptibility” in experiment [1] (setting [5]), “completely or nearly completely resistant; also recorded: moderately resistant” in experiment [1] (setting [6]) and “increased sensitivity/susceptibility” in experiment [2] (setting [5]). The “sensitivity (zone of clearance around disk)” value (shortened to “sensitivity”) in experiment [3] (setting [7]) is reported as “highly sensitive”; in experiment [3] (without lignin (50 mM MOPS)), “some susceptibility; also recorded: moderately sensitive”; in experiment [4] (setting [7]), “highly sensitive”; in experiment [4] (without lignin (50 mM MOPS)), “some susceptibility; also recorded: moderately sensitive”.

For `Cc1onc(-c2ccccc2)c1C(=O)N[C@@H]1C(=O)N2[C@@H]1SC(C)(C)[C@@H]2C(=O)O` [oxacillin], the “susceptibility (zone of clearance around disk)” value was “increased sensitivity/susceptibility” in experiment [1] (setting [5]), “sensitive/susceptible” in experiment [1] (setting [6]), “sensitive; also recorded: increased sensitivity/susceptibility” in experiment [2] (setting [5]) and “completely resistant” in experiment [2] (setting [6]).

amoxicillin+clavulanic acid: the “sensitivity” value in experiment [3] (setting [7]) is reported as “highly sensitive”; in experiment [3] (without lignin (50 mM MOPS)), “some susceptibility; also recorded: moderately sensitive”; in experiment [4] (setting [7]), “highly sensitive”; in experiment [4] (without lignin (50 mM MOPS)), “some susceptibility; also recorded: moderately sensitive”.

For the molecule penicillin, the figures for the “susceptibility (zone of clearance around disk)” value in experiment [1] (setting [5]), in experiment [1] (setting [6]) and in experiment [2] (setting [5]) were “at least partially sensitive/susceptible; also recorded: increased sensitivity/susceptibility”, “completely or nearly completely resistant; also recorded: moderately resistant” and “increased sensitivity/susceptibility”, respectively. Further, the “sensitivity” value in experiment [3] (setting [7]) is “highly sensitive”; in experiment [3] (without lignin (50 mM MOPS)), “some susceptibility; also recorded: moderately sensitive”; in experiment [4] (setting [7]), “highly sensitive”; in experiment [4] (without lignin (50 mM MOPS)), “some susceptibility; also recorded: moderately sensitive”.

As for tunicamycin, the “zone of clearance around disk” value is reported as “susceptibility” in the experiment with S. aureus UAMS-1 (TSA with 50 mM MOPS + 5 mg/mL lignin); “a clearance zone was observed” with S. aureus UAMS-1 (TSA with 50 mM MOPS + 5 mg/mL lignin, listed as Tunicamycin); “tolerance of the antibiotic” in the experiment on S. aureus UAMS-1 (TSA with 50 mM MOPS, no lignin); “No clearance zone was observed” with S. aureus UAMS-1 (TSA with 50 mM MOPS, no lignin, listed as Tunicamycin).

These data come from patent US12582670B2, “Lignin solvation using aqueous biologically compatible buffers” (priority 2019, dated 2026).
